# Measurements reported in the OPERA property sets (Mansouri et al. 2018).
Compound,logP,solubility
CC(C)c1cccc(-c2ccccc2)c1,5.33,
Clc1cc(Cl)c2cc(Cl)cc(Cl)c2c1,6.19,
OCc1ccccc1F,1.31,
CCCCn1cccc(O)c1=O,1.18,
O=[N+]([O-])c1cccc2c1-c1cccc3c([N+](=O)[O-])ccc-2c13,4.44,
CS(=O)CCCOc1ccc2ccccc2c1 (stereo not given),2.42,
COc1c(Cl)c(Cl)c(Cl)c(Cl)c1Cl,5.45,
c1ccc2nc3c4ccccc4c4ccccc4c3cc2c1,5.66,
CC(=O)Nc1ncc2ncn(COCCOC(C)=O)c2n1,-1.05,
C=CCNc1ncc(-c2ccncc2)cc1C#N,2.07,
CCNC(N)=S,-0.21,
CN(C)C1CSSC1,,13.4 mM
CCOCCn1cnc2c(=N)n(C)c(=O)[nH]c21,-0.4,
O=C(NCCN1CCC(n2c(=O)[nH]c3cc(Cl)ccc32)CC1)c1ccc(F)cc1,4.63,
Cc1nnc(-c2ccccc2)c(=O)n1N,0.83,
C[C@@H]1CC[C@H](C)O1,1.22,
CCCCCCCCCCCCN1CC(C(=O)OC)CC1=O (stereo not given),4,
O=[N+]([O-])c1ccc2c(c1)NCC2,1.92,
CN1CCN(CCn2cncc2[N+](=O)[O-])CC1,-0.2,
O=c1[nH]c(=O)n([C@H]2C[C@H](O)[C@@H](CO)O2)cc1I,-0.96,
COc1ccc(Nc2ccnc3cc(Cl)ccc23)cc1,4.94,
ClCC1(CCl)C2C(Cl)C(Cl)(Cl)C1(C(Cl)Cl)CC2(Cl)Cl (stereo not given),6.26,
Cc1c(Cl)ccc(Cc2ccc(Cl)cc2Cl)c1Cl,7.2,
c1ccc(CNc2[nH]cnc3ncnc2-3)cc1,1.57,
COC(=O)CCC(=O)OC,,171 mM
Nc1nc(NC(=O)C(F)(F)C(F)(F)C(F)(F)F)n[nH]1,1.54,
ClC1=C(Cl)C(Cl)(Cl)C(Cl)(Cl)C1(Cl)Cl,,0.000291 mM

Compound,logP,solubility
COc1ccc(C#N)cc1,1.7,
OC(CN1C2CCCCC21)Cn1ccnc1 (stereo not given),1.07,
C=CCC1(CC(C)O)C(=O)NC(=O)NC1=O (stereo not given),-0.05,
CCC(=O)n1ncc2c(O)ncnc21,0.3,
CN(C(=O)C(Cl)Cl)c1ccc(OC(=O)c2ccccc2)cc1,2.56,
Clc1cc2c(cc1Cl)-c1cc(Cl)c(Cl)cc1-2,6.14,
CC(=O)OCn1cc2c(=O)n(COC(C)=O)cnc2n1,-0.2,
CCCC(=O)OCN1C(=O)NC(c2ccccc2)(c2ccccc2)C1=O,3.34,
O=C(CS(=O)(=O)c1ccccc1)c1ccc(Cl)cc1,2.69,
NC(=O)c1ccc(N)nc1,0.7,
O=C(O)CCOc1cccc2ccccc12,3,
O=[N+]([O-])c1cc(C2CCCCC2)c(O)c([N+](=O)[O-])c1,4.12,
CC(=O)NCCc1c[nH]c2ccccc12,1.41,
OC(CN1C2CCCC21)Cn1ccnc1 (stereo not given),0.37,
CC1(C)Cc2cccc([N+](=O)[O-])c2O1,3.33,
CCOC(=O)C1=C(C)NC(C)=C(C(=O)OC)C1c1cccc([N+](=O)[O-])c1 (stereo not given),2.88,
COC(=O)c1c[nH]c2ccccc12,2.57,
Nc1cnn(-c2ccccc2)c(=O)c1Cl,1.14,
COc1cccc(Nc2ccccc2C(=O)O)c1,4.31,
CC(C)CC(=O)OCc1ccccc1,3.26,
CN(CCN)S(=O)(=O)c1ccc(C(C)(C)[N+](=O)[O-])c([N+](=O)[O-])c1,0.65,
CCCN1CCOC2c3cc(O)ccc3CCC21 (stereo not given),2.44,
N#Cc1cccc(N=C=S)c1,3.13,
C=CC(=O)NCCN(C)C,-0.25,
COc1ccc2cc(CCC(C)=O)ccc2c1,3.08,
CN(C)C(=O)Nc1ccc(Oc2ccc(Cl)cc2)cc1,3.7,
CN(C)CCCN1c2cc(O)ccc2Sc2ccc(Cl)cc21,4.63,

Compound,logP,solubility
Cc1cc(C)cc(NCc2cnc3nc(N)nc(N)c3c2C)c1,2.11,
CC[C@H](C)C(=O)O[C@H]1C[C@H](O)C=C2C=C[C@H](C)[C@H](CC[C@@H](O)C[C@@H](O)CC(=O)[O-])[C@H]21.[Na+],-0.23,
CCCCCCC(C)O (stereo not given),2.9,
O=C1CC(c2ccccc2)Oc2ccccc21 (stereo not given),3.14,
O=C(O)c1c(C(=O)O)c(C(=O)O)c(C(=O)O)c(C(=O)O)c1C(=O)O,1.5,
O=[N+]([O-])c1cccc(O)c1,,97.1 mM
OCCN1CC=C(c2ccccc2)CC1,2,
Nc1ccc2nc(S(N)(=O)=O)sc2c1,0.52,
O=[N+]([O-])c1cc(N(CCO)CCO)ccc1NCCO,1.7,
CCCCCCCCOC(=O)c1ccc(N)cc1,5.02,
COc1ccc(Cl)c(Cl)c1Cl,3.74,
O=[N+]([O-])c1ccc2c(c1)Cc1ccccc1-2,3.37,
N=C(N)NN=C(c1ccccc1)c1cccs1,1.96,
Clc1cccc2c(Cl)cccc12,4.67,0.00192 mM
Clc1cccc(-c2c(Cl)ccc(Cl)c2Cl)c1Cl,6.04,
c1ccc2c(c1)ccc1[nH]c3ccc4ccccc4c3c12,,0.000236 mM
ON=C1CCCCC1,0.84,
CCN1CCC(CNC(=O)c2cc(S(N)(=O)=O)c(N)cc2OC)C1 (stereo not given),0.66,
Cn1cccc(O)c1=O,-0.4,
CC1=C(C)C(=O)C=CC1=O,1.23,
COP(=S)(OC)Oc1ccc(C#N)cc1,2.71,
NC(=O)NCCCn1nc(-c2ccccc2)ccc1=O,0.69,
NS(=O)(=O)c1cc2cc(CNCCF)sc2o1,0.34,
COc1c(Cl)c(Cl)cc(Cl)c1Cl,4.68,
COc1ccc(C=[N+]([O-])c2ccccc2)cc1,1.94,
